Source: a melting point compilation (Tetko et al.)

melting point [°C]	SMILES
145 to 147	COc1ccc([N+](=O)[O-])c2cccnc12
159 to 161	CC(N)c1ccc(NC(=O)c2ccncc2)cc1 (stereo not given)
249 to 251	N#Cc1ccc2c(c1)CC(=O)N2
104 to 106	c1cc2c[nH]nc2cn1
86 to 88	COc1cc(C=O)ccc1OCc1csc(C)n1
92 to 94	COc1cccc(-c2nc(C=O)cs2)c1
128 to 130	NCc1cccc(NC(=O)c2ccncc2)c1
79 to 81	Cc1c(CC#N)cccc1[N+](=O)[O-]
157 to 159	CNc1ccc(-c2ccccc2)nn1
201 to 203	Cc1nnc2ccc(C#N)cn12
170 to 172	CC1(c2ccccn2)NC(=O)NC1=O (stereo not given)
219 to 221	O=c1cc(Cl)nc2ccc(Cl)cn12
138 to 140	O=C(O)c1cccc(OCC(F)(F)F)n1
178 to 180	O=c1[nH]c(-c2ccccn2)nc2c1CCC2
219 to 221	Nc1ccc(-c2nc3cc(Br)ccc3[nH]2)cc1
100 to 102	CCOC(=O)COc1ccccc1C(=O)O
84 to 86	COc1ccc2cc(C=O)c(Cl)nc2c1
144 to 148	O=C(O)c1ccc(F)nc1
141 to 143	Cc1cccc(-n2cc(C(=O)CCl)nn2)c1
238 to 240	CC(C(=O)O)n1c(S)nc2ccccc2c1=O (stereo not given)
106 to 108	O=C(O)C1(c2ccccc2F)CC1
159 to 161	O=C(O)c1cc(OCc2ccccc2)ccn1
188 to 190	Oc1ccc(Br)cc1-c1nn[nH]n1
95 to 97	CCOC(=O)Nc1cccc(O)c1

melting point [°C]	SMILES
68 to 70	Cc1cccc(Oc2ccc(N)cn2)c1C
79 to 81	OCc1coc(-c2ccccc2)n1
203 to 205	COc1cc(O)ncc1Br
128 to 130	O=S(=O)(Cl)c1cc2ccc(Cl)nc2cc1F
172 to 174	COc1ccc(-c2nc(C(=O)O)cs2)cc1
96 to 98	Cc1c(S(=O)(=O)Cl)cnn1-c1ccc(F)cc1
209 to 211	Cc1ccc2cc(C(=O)O)[nH]c2c1
213 to 215	Nc1ncn(-c2ccncc2)n1
171 to 173	Cc1nc(-c2cc(C(=O)O)n(C)c2)cs1
114 to 116	N#Cc1cccnc1-n1cccn1
117 to 119	Cc1cc(SCC(=O)O)nc2ccccc12
239 to 241	O=C(O)c1cccc(=O)[nH]1
158 to 160	CC1CNc2ccccc2CN1C(=O)OC(C)(C)C (stereo not given)
157 to 159	NC(=O)c1cc(Cl)ccn1
254 to 256	Cc1c(C(=O)O)cnc2ccccc12
199 to 201	Nc1ccc(CCC(=O)O)cn1
73 to 75	CC(C)C1CNc2ccccc2N1 (stereo not given)
121 to 123	Cn1c(S)nnc1-c1ccncc1
117 to 119	CCOC(=O)c1cnn2cccnc12
54 to 56	O=C(c1cccnc1)c1ccc(F)cc1F
94 to 98	Cc1cccc(NC(S)=C(C#N)c2nc3ccccc3s2)c1C
53 to 55	OCCOc1ccc(Br)cc1
141 to 143	NC(=O)c1cccc(N)n1
149 to 151	CCCc1cc(=O)[nH]c(-c2ccccc2)n1

Further lines, the compound ahead of its results:

SMILES	melting point [°C]
Cc1sc(C(=O)O)cc1S(=O)(=O)Cl	148 to 150
Cc1ccc2sc(C3CCNCC3)nc2c1	111 to 113
O=C(O)c1ncoc1CCC(F)(F)F	139 to 141
CCNc1ccc(S(=O)(=O)C(F)(F)F)cc1N	149 to 151
CS(=O)(=O)c1ccc(CN)cc1	272 to 274
O=C(O)C1CCN(C(=O)COc2ccccc2)CC1	73 to 75
O=C(NCc1ccc(C(=O)O)cc1)OCc1ccccc1	190 to 192
COc1ccc(NCc2cccs2)cc1	71 to 73
COc1ccc(NS(=O)(=O)c2ccc(C(C)=O)cc2)cc1	121 to 123
CN(C)Cc1c(O)ccc2c1CCCC2	77 to 79
N#Cc1cn(-c2ccc([N+](=O)[O-])cc2)nc1N	278 to 280
O=C(O)CSc1nncs1	157 to 159
NC(=O)c1csc(C(=O)CCl)c1	175 to 177
Cn1c(SCC(=O)O)nnc1-c1cccs1	205 to 207
COc1cccc(Cl)c1C(=O)O	140 to 142
CC(=O)Nc1ccc(SCC(=O)O)cc1	156 to 158
O=S1(=O)CCNCC12CCCCC2	99 to 101
CC(C)Oc1ccc(S(N)(=O)=O)c2ccccc12	95 to 97
Cc1cccc(C(=O)NC(C)C(=O)O)c1 (stereo not given)	117 to 119
CC(C)(C)NC(=O)c1cccc(N)c1	124 to 126
Cc1nn(C)c2c1NCC1CCCN21 (stereo not given)	159 to 161
CC1CNC(=Nc2cnc3ccccc3c2)S1 (stereo not given)	144 to 146
O=C(O)CCNC(=O)Cc1ccccc1	109 to 111
OCCCOc1cccc2ccccc12	65 to 67
CNS(=O)(=O)c1ccc(S(=O)(=O)Cl)cc1	99 to 101

SMILES	melting point [°C]
O=C(O)c1occc1Br	155 to 157
CNc1cccnc1N1CCCC1	105 to 107
CC(=O)c1ccc(NS(C)(=O)=O)cc1	155 to 157
Cn1cccc1C(=O)CCl	30 to 40
C=CCn1c(N)c(C(=O)OCC)sc1=S	118 to 120
Cc1nn(C)c(Cl)c1/C=C/C(=O)O	156 to 158
CC1CNCCC1NC(=O)OC(C)(C)C (stereo not given)	104 to 106
COc1cc(Br)cc(F)c1C#N	75 to 77
O=C(c1cc(F)ccc1F)c1ccccc1Cl	67 to 69
COC(=O)c1ccc(C(=O)OC)c(NC(=O)C(C)Cl)c1 (stereo not given)	128 to 130
O=C(O)c1ccc(Nc2ccc(F)c(F)c2)c([N+](=O)[O-])c1	237 to 239
C1CCC(c2nnn[nH]2)C1	119 to 121
Cc1cc(C=O)cc(C)c1OC(F)F	56 to 58
Nc1cc(C(=O)O)ccc1Br	226 to 230
CC1CCN(CC(O)CN)CC1 (stereo not given)	63 to 65
O=C(O)COc1ccc(Oc2ccccc2)cc1	127 to 129
CNCCCc1n[nH]c(N)c1C#N	179 to 181
c1ccc(NC2CCN(c3ccncc3)CC2)cc1	145 to 147
CC(Cl)C(=O)c1ccc(Cl)cc1 (stereo not given)	58 to 60
CS(=O)(=O)c1ccccc1Br	107 to 109
CC(C)(C)NCC(N)=O	49 to 51
CCC(c1ccccc1)c1nnc(N)s1 (stereo not given)	184 to 186
Cn1nc(CC(=O)O)c2ccccc2c1=O	189 to 191
O=C(O)CNCc1c(F)cccc1Cl	184 to 186
CCN1C(=O)C(=O)c2ccc(Br)cc21	118 to 120

SMILES	melting point [°C]
NCc1ccc(-c2ccc3c(c2)CCCO3)cc1	89 to 91
COC(=O)c1ccc(Br)c(S(=O)(=O)Cl)c1	102 to 104
O=c1c2sc(-c3ccccc3)cc2nc(S)n1Cc1ccccc1	313 to 315
O=C(O)C1CCCN1C(=O)c1cc(Cl)cc(Cl)c1 (stereo not given)	162 to 164
CC(=O)c1cccc(S(=O)(=O)N2CCOCC2)c1	142 to 144
O=C(O)c1cc(S(=O)(=O)NCc2ccccn2)c(Cl)cc1Cl	231 to 233
NC(=O)NCc1ccccc1Cl	149 to 151
O=S(=O)(Nc1cccc(Br)c1)c1ccccc1	116 to 118
COCCn1nc(C(=O)O)ccc1=O	156 to 158
CCCCc1ccc(NC2=NCCCS2)cc1	70 to 72
Cc1cc2ncc(SC(=O)N(C)C)cn2n1	144 to 146
CS(=O)(=O)c1ccc(F)c(S(C)(=O)=O)c1	196 to 198
Cc1noc2ncc(C(=O)O)cc12	229 to 231
COC(=O)NC(Cc1ccccc1)C(=O)O (stereo not given)	75 to 77
CC(C)(C)c1nc(=N)s[nH]1	160 to 162
CC(C)C1(C)CC(=O)NC1=O (stereo not given)	78 to 80
Cc1ccc(NCCC(=O)O)cc1Cl	80 to 82
COc1ccc(C(=O)O)cc1S(=O)(=O)Nc1ccc(Br)cc1	257 to 259
Nc1ccc(Cl)c(C(=O)NC2CCCCC2)c1	159 to 161
NC(=O)N1CCCC(C(=O)O)C1 (stereo not given)	181 to 185
NNc1c(F)cc(C(=O)NC2CC2)cc1F	204 to 206
Cn1cc(Br)cc1C(=O)NC1CC1	112 to 114
Cc1nn(Cc2ccc(Cl)cc2)c(C)c1C=O	71 to 73
CCS(=O)(=O)c1ccc2c(c1)N(CC(=O)O)CC(=O)O2	188 to 190
Clc1ncnc2c1CCC2	39 to 41

SMILES	melting point [°C]
Cc1cc(S(=O)(=O)Nc2sc3c(c2C(N)=O)CCC(C)C3)ccc1Br (stereo not given)	218 to 220
C/C(=N\NC(N)=S)c1ccccc1	114 to 116
CC(C)c1ccc(-c2nn(-c3ccccc3)cc2C(=O)O)cc1	222 to 224
O=Cc1ccccc1OCC(=O)NCC1CC1	93 to 95
Cc1ccccc1-n1c(C)cc(C(=O)O)c1C	127 to 129
CS(=O)(=O)CCn1cc(Br)cn1	94 to 96
O=C(O)CCc1ccc([N+](=O)[O-])cn1	135 to 137
COc1cc(CC#N)ccc1OCC(F)(F)F	62 to 64
CCC(=CC(=O)O)c1ccccc1	92 to 94
CC(=O)c1ccccc1NS(=O)(=O)c1cccs1	150 to 152
Cc1nc(N(C)C)sc1C(=O)O	99 to 101
CC(C)(C)OC(=O)NCCOc1ccc(N)cc1	73 to 75
Cc1cc(N)c2c(n1)CCCC2	121 to 123
O=C(O)c1ccc(N2CCOC2=O)cc1	271 to 273
O=C(O)c1ccc2c(c1)C(=O)NS2(=O)=O	279 to 281
CC1(C)NC(=O)N2C1=NC(=N)C2(C)C	236 to 238
O=C(O)CNC(=O)c1cccc(OCc2ccccc2)c1	185 to 187
Cc1cc(F)cc2[nH]c(C(=O)O)cc12	261 to 263
O=C(O)C=Cc1cc(Cl)cc(Cl)c1	130 to 134
CCc1ccc(C(=O)CCl)cc1	41 to 43
CCOC(=O)c1oc2ccc(Br)cc2c1CBr	132 to 134
CC1CCc2c(sc(N)c2C#N)C1 (stereo not given)	145 to 147
